Experiment: Inhibition of alpha-glucosidase (unknown origin) using pNPG substrate incubated for 15 mins by microplate reader based method

SMILES | IC50
O=C(N/N=C/c1ccc([N+](=O)[O-])cc1)c1ccc(-c2nc3ccccc3s2)cc1 | 26.4 µM
O=C(N/N=C/c1ccc(F)cc1)c1ccc(-c2nc3ccccc3s2)cc1 | 7.12 µM
COc1cc(/C=N/NC(=O)c2ccc(-c3nc4ccccc4s3)cc2)cc(OC)c1 | 16.2 µM
O=C(N/N=C/c1ccccc1)c1ccc(-c2nc3ccccc3s2)cc1 | 8.05 µM
O=C(N/N=C/c1ccc(F)c(Br)c1)c1ccc(-c2nc3ccccc3s2)cc1 | 28 µM
COc1ccc(/C=N/NC(=O)c2ccc(-c3nc4ccccc4s3)cc2)cc1 | 18.3 µM
O=C(N/N=C/c1c(O)cc(O)cc1O)c1ccc(-c2nc3ccccc3s2)cc1 | 8.37 µM
O=C(N/N=C/c1ccc(O)c(Br)c1)c1ccc(-c2nc3ccccc3s2)cc1 | 8.07 µM
O=C(N/N=C/c1ccc(Cl)cc1)c1ccc(-c2nc3ccccc3s2)cc1 | 5.31 µM
COc1cccc(/C=N/NC(=O)c2ccc(-c3nc4ccccc4s3)cc2)c1 | 11.1 µM
O=C(N/N=C/c1cccc(O)c1)c1ccc(-c2nc3ccccc3s2)cc1 | 9.21 µM
COc1cc(/C=N/NC(=O)c2ccc(-c3nc4ccccc4s3)cc2)ccc1O | 53.3 µM
COc1ccc(/C=N/NC(=O)c2ccc(-c3nc4ccccc4s3)cc2)c(I)c1O | 44.8 µM
O=C(N/N=C/c1cc(O)ccc1O)c1ccc(-c2nc3ccccc3s2)cc1 | 11.8 µM
O=C(N/N=C/c1cc(O)cc(O)c1)c1ccc(-c2nc3ccccc3s2)cc1 | 11.1 µM
COc1ccc(O)c(/C=N/NC(=O)c2ccc(-c3nc4ccccc4s3)cc2)c1 | 6.5 µM
O=C(N/N=C\c1ccccn1)c1ccc(-c2nc3ccccc3s2)cc1 | 10.2 µM
O=C(N/N=C/c1ccc(O)cc1)c1ccc(-c2nc3ccccc3s2)cc1 | 11.3 µM
O=C(N/N=C/c1cccs1)c1ccc(-c2nc3ccccc3s2)cc1 | 8.48 µM
O=C(N/N=C/c1cccc(O)c1O)c1ccc(-c2nc3ccccc3s2)cc1 | 11.2 µM
COc1ccc(/C=N/NC(=O)c2ccc(-c3nc4ccccc4s3)cc2)c(O)c1 | 6.97 µM
O=C(N/N=C/c1ccccc1O)c1ccc(-c2nc3ccccc3s2)cc1 | 5.55 µM
O=C(N/N=C\c1ccco1)c1ccc(-c2nc3ccccc3s2)cc1 | 12.8 µM
O=C(N/N=C/c1ccc(O)c(O)c1)c1ccc(-c2nc3ccccc3s2)cc1 | 15.1 µM
O=C(N/N=C/c1ccc(O)cc1O)c1ccc(-c2nc3ccccc3s2)cc1 | 5.58 µM

Source: BindingDB's records for doi:10.1016/j.ejmech.2015.01.009 (Universiti Teknologi Mara (Uitm), 2015)
